{"source": "PubChem BioAssay AID1259407", "about": "(Chemical Carcinogenesis Research Information System (CCRIS), 2018)", "tested_on": "CCRIS mutagenicity, Ames/micronucleus/aberration tests", "test": "CCRIS mutagenicity studies", "key": {"[1]": {"conditions": "Test System: AMES SALMONELLA TYPHIMURIUM, Strain/Indicator: TA98, Metabolic Activation: NONE, Method: PREINCUBATION"}, "[2]": {"conditions": "Test System: AMES SALMONELLA TYPHIMURIUM, Strain/Indicator: TA100, Metabolic Activation: NONE, Method: PREINCUBATION"}, "[3]": {"conditions": "Test System: AMES SALMONELLA TYPHIMURIUM, Strain/Indicator: TA1535, Metabolic Activation: NONE, Method: PREINCUBATION"}, "[4]": {"conditions": "Test System: AMES SALMONELLA TYPHIMURIUM, Strain/Indicator: TA1537, Metabolic Activation: NONE, Method: PREINCUBATION"}, "[5]": {"conditions": "Test System: AMES SALMONELLA TYPHIMURIUM, Strain/Indicator: TA1538, Metabolic Activation: NONE, Method: PREINCUBATION"}}, "note": "The source made the active and inactive calls. No rule for the calls is given here."}
{"smiles": "O=C(ON=C1C=CC(=NOC(=O)c2ccccc2)C=C1)c1ccccc1", "values": [{"measurement": "mutagenic call", "setting": "End Point: IN VITRO CHROMOSOMAL ABERRATIONS, Test System: CHL CELLS, Metabolic Activation: RAT, LIVER, S-9, SODIUM PHENOBARBITAL AND 5,6-BENZOFLAVONE", "value": "inactive; negative"}, {"measurement": "mutagenic call", "setting": "[1]", "value": "active; positive"}, {"measurement": "mutagenic call", "setting": "Test System: AMES SALMONELLA TYPHIMURIUM, Strain/Indicator: TA98, Metabolic Activation: RAT LIVER S-9, PHENOBARBITAL AND BETA-NAPHTHOFLAVONE, Method: PREINCUBATION", "value": "active; positive"}, {"measurement": "mutagenic call", "setting": "[2]", "value": "inactive; negative"}, {"measurement": "mutagenic call", "setting": "Test System: AMES SALMONELLA TYPHIMURIUM, Strain/Indicator: TA100, Metabolic Activation: RAT LIVER S-9, PHENOBARBITAL AND BETA-NAPHTHOFLAVONE, Method: PREINCUBATION", "value": "active; positive"}, {"measurement": "mutagenic call", "setting": "[3]", "value": "inactive; negative"}, {"measurement": "mutagenic call", "setting": "Test System: AMES SALMONELLA TYPHIMURIUM, Strain/Indicator: TA1535, Metabolic Activation: RAT LIVER S-9, PHENOBARBITAL AND BETA-NAPHTHOFLAVONE, Method: PREINCUBATION", "value": "inactive; negative"}, {"measurement": "mutagenic call", "setting": "[4]", "value": "inactive; negative"}, {"measurement": "mutagenic call", "setting": "Test System: AMES SALMONELLA TYPHIMURIUM, Strain/Indicator: TA1537, Metabolic Activation: RAT LIVER S-9, PHENOBARBITAL AND BETA-NAPHTHOFLAVONE, Method: PREINCUBATION", "value": "active; positive"}, {"measurement": "mutagenic call", "setting": "[5]", "value": "active; positive"}, {"measurement": "mutagenic call", "setting": "Test System: AMES SALMONELLA TYPHIMURIUM, Strain/Indicator: TA1538, Metabolic Activation: RAT LIVER S-9, PHENOBARBITAL AND BETA-NAPHTHOFLAVONE, Method: PREINCUBATION", "value": "active; positive"}, {"measurement": "mutagenic call", "setting": "Test System: E.COLI, Strain/Indicator: WP2UVRA, Metabolic Activation: NONE, Method: PREINCUBATION", "value": "inactive; negative"}, {"measurement": "mutagenic call", "setting": "Test System: E.COLI, Strain/Indicator: WP2UVRA, Metabolic Activation: RAT LIVER S-9, PHENOBARBITAL AND BETA-NAPHTHOFLAVONE, Method: PREINCUBATION", "value": "inactive; negative"}]}
{"smiles": "CC(O)CN", "note": "(stereo not drawn)", "values": [{"measurement": "mutagenic call", "setting": "Test System: AMES SALMONELLA TYPHIMURIUM, Strain/Indicator: TA98, Metabolic Activation: HAMSTER, LIVER, S-9, AROCLOR 1254 (10%), Method: PREINCUBATION", "value": "inactive; negative"}, {"measurement": "mutagenic call", "setting": "[1]", "value": "inactive; negative"}, {"measurement": "mutagenic call", "setting": "Test System: AMES SALMONELLA TYPHIMURIUM, Strain/Indicator: TA98, Metabolic Activation: RAT, LIVER, S-9, AROCLOR 1254 (10%), Method: PREINCUBATION", "value": "inactive; negative"}, {"measurement": "mutagenic call", "setting": "Test System: AMES SALMONELLA TYPHIMURIUM, Strain/Indicator: TA98, Metabolic Activation: RAT, LIVER, S-9, KC 500, Method: PREINCUBATION", "value": "inactive; negative"}, {"measurement": "mutagenic call", "setting": "Test System: AMES SALMONELLA TYPHIMURIUM, Strain/Indicator: TA100, Metabolic Activation: HAMSTER, LIVER, S-9, AROCLOR 1254 (10%), Method: PREINCUBATION", "value": "inactive; negative"}, {"measurement": "mutagenic call", "setting": "[2]", "value": "inactive; negative"}, {"measurement": "mutagenic call", "setting": "Test System: AMES SALMONELLA TYPHIMURIUM, Strain/Indicator: TA100, Metabolic Activation: RAT, LIVER, S-9, AROCLOR 1254 (10%), Method: PREINCUBATION", "value": "inactive; negative"}, {"measurement": "mutagenic call", "setting": "Test System: AMES SALMONELLA TYPHIMURIUM, Strain/Indicator: TA100, Metabolic Activation: RAT, LIVER, S-9, KC 500, Method: PREINCUBATION", "value": "inactive; negative"}, {"measurement": "mutagenic call", "setting": "Test System: AMES SALMONELLA TYPHIMURIUM, Strain/Indicator: TA1535, Metabolic Activation: HAMSTER, LIVER, S-9, AROCLOR 1254 (10%), Method: PREINCUBATION", "value": "active; positive"}, {"measurement": "mutagenic call", "setting": "[3]", "value": "inactive; negative"}, {"measurement": "mutagenic call", "setting": "Test System: AMES SALMONELLA TYPHIMURIUM, Strain/Indicator: TA1535, Metabolic Activation: RAT, LIVER, S-9, AROCLOR 1254 (10%), Method: PREINCUBATION", "value": "active; positive"}, {"measurement": "mutagenic call", "setting": "Test System: AMES SALMONELLA TYPHIMURIUM, Strain/Indicator: TA1535, Metabolic Activation: RAT, LIVER, S-9, KC 500, Method: PREINCUBATION", "value": "inactive; negative"}, {"measurement": "mutagenic call", "setting": "Test System: AMES SALMONELLA TYPHIMURIUM, Strain/Indicator: TA1537, Metabolic Activation: HAMSTER, LIVER, S-9, AROCLOR 1254 (10%), Method: PREINCUBATION", "value": "inactive; negative"}, {"measurement": "mutagenic call", "setting": "[4]", "value": "inactive; negative"}, {"measurement": "mutagenic call", "setting": "Test System: AMES SALMONELLA TYPHIMURIUM, Strain/Indicator: TA1537, Metabolic Activation: RAT, LIVER, S-9, AROCLOR 1254 (10%), Method: PREINCUBATION", "value": "inactive; negative"}, {"measurement": "mutagenic call", "setting": "Test System: AMES SALMONELLA TYPHIMURIUM, Strain/Indicator: TA1537, Metabolic Activation: RAT, LIVER, S-9, KC 500, Method: PREINCUBATION", "value": "inactive; negative"}, {"measurement": "mutagenic call", "setting": "[5]", "value": "inactive; negative"}, {"measurement": "mutagenic call", "setting": "Test System: AMES SALMONELLA TYPHIMURIUM, Strain/Indicator: TA1538, Metabolic Activation: RAT, LIVER, S-9, KC 500, Method: PREINCUBATION", "value": "inactive; negative"}, {"measurement": "mutagenic call", "setting": "Test System: Ames Salmonella typhimurium, Strain/Indicator: TA98, Metabolic Activation: None, Method: Preincubation", "value": "inactive; negative"}, {"measurement": "mutagenic call", "setting": "Test System: Ames Salmonella typhimurium, Strain/Indicator: TA98, Metabolic Activation: Rat, Liver, S9, Sodium phenobarbital and 5,6-benzoflavone (10%), Method: Preincubation", "value": "inactive; negative"}, {"measurement": "mutagenic call", "setting": "Test System: Ames Salmonella typhimurium, Strain/Indicator: TA100, Metabolic Activation: None, Method: Preincubation", "value": "inactive; negative"}, {"measurement": "mutagenic call", "setting": "Test System: Ames Salmonella typhimurium, Strain/Indicator: TA100, Metabolic Activation: Rat, Liver, S9, Sodium phenobarbital and 5,6-benzoflavone (10%), Method: Preincubation", "value": "inactive; negative"}, {"measurement": "mutagenic call", "setting": "Test System: Ames Salmonella typhimurium, Strain/Indicator: TA1535, Metabolic Activation: None, Method: Preincubation", "value": "inactive; negative"}, {"measurement": "mutagenic call", "setting": "Test System: Ames Salmonella typhimurium, Strain/Indicator: TA1535, Metabolic Activation: Rat, Liver, S9, Sodium phenobarbital and 5,6-benzoflavone (10%), Method: Preincubation", "value": "inactive; negative"}, {"measurement": "mutagenic call", "setting": "Test System: Ames Salmonella typhimurium, Strain/Indicator: TA1537, Metabolic Activation: None, Method: Preincubation", "value": "inactive; negative"}, {"measurement": "mutagenic call", "setting": "Test System: Ames Salmonella typhimurium, Strain/Indicator: TA1537, Metabolic Activation: Rat, Liver, S9, Sodium phenobarbital and 5,6-benzoflavone (10%), Method: Preincubation", "value": "inactive; negative"}, {"measurement": "mutagenic call", "setting": "Test System: E. COLI, Strain/Indicator: WP2 UVRA, Metabolic Activation: NONE, Method: PREINCUBATION", "value": "inactive; negative"}, {"measurement": "mutagenic call", "setting": "Test System: E. COLI, Strain/Indicator: WP2 UVRA, Metabolic Activation: RAT, LIVER, S-9, KC 500, Method: PREINCUBATION", "value": "inactive; negative"}, {"measurement": "mutagenic call", "setting": "Test System: E. coli, Strain/Indicator: WP2uvrA/pKM101, Metabolic Activation: None, Method: Preincubation", "value": "inactive; negative"}, {"measurement": "mutagenic call", "setting": "Test System: E. coli, Strain/Indicator: WP2uvrA/pKM101, Metabolic Activation: Rat, Liver, S9, Sodium phenobarbital and 5,6-benzoflavone (10%), Method: Preincubation", "value": "inactive; negative"}]}
{"smiles": "COc1cc(OC)c2c(=O)c3c(O)ccc(OC)c3oc2c1", "values": [{"measurement": "mutagenic call", "setting": "Test System: AMES SALMONELLA TYPHIMURIUM, Strain/Indicator: TA97, Metabolic Activation: NONE, Method: PREINCUBATION", "value": "inactive; negative"}, {"measurement": "mutagenic call", "setting": "Test System: AMES SALMONELLA TYPHIMURIUM, Strain/Indicator: TA97, Metabolic Activation: RAT, LIVER, S-9, PHENOBARBITAL AND 5,6-BENZOFLAVONE, Method: PREINCUBATION", "value": "active; positive"}, {"measurement": "mutagenic call", "setting": "Test System: AMES SALMONELLA TYPHIMURIUM, Strain/Indicator: TA98, Metabolic Activation: RAT, LIVER, S-9, PHENOBARBITAL AND 5,6-BENZOFLAVONE, Method: PREINCUBATION", "value": "inactive; negative"}, {"measurement": "mutagenic call", "setting": "Test System: AMES SALMONELLA TYPHIMURIUM, Strain/Indicator: TA100, Metabolic Activation: RAT, LIVER, S-9, PHENOBARBITAL AND 5,6-BENZOFLAVONE, Method: PREINCUBATION", "value": "inactive; negative"}, {"measurement": "mutagenic call", "setting": "Test System: AMES SALMONELLA TYPHIMURIUM, Strain/Indicator: TA2637, Metabolic Activation: RAT, LIVER, S-9, PHENOBARBITAL AND 5,6-BENZOFLAVONE, Method: PREINCUBATION", "value": "active; positive"}]}
